Measurements: patent US20190308988A1, “OPIOID RECEPTOR ANTAGONIST PRODRUGS” (Nirsum Laboratories, Inc., priority 2017, published 2019)
≈ marks a conversion by molar mass, not a printed value.

Legend:
[1] = in vivo; cited from earlier work
[2] = Plasma stability, human plasma (HPLC-MS); format: in vitro ADME; conditions: 2 μM, 37° C., 120 min
Description: (§1) Plasma Stability Determination of the Test Compounds in Rat, Dog, Cynomolgus Monkey and human plasma is performed using HPLC-MS. For rat, incubations are carried out in 96-well polypropylene plates in 5 aliquots of 70 μL each (one for each time point). […] Five time points are analyzed (0, 15, 120, 480 and 1440 min). […] All incubations are performed in duplicates. The samples are analyzed by HPLC-MS. The percentage of parent compound remaining after incubation in plasma is determined.

[3] = Liver S9 fraction stability, dog; format: in vitro ADME; conditions: dog liver S9 1.0 mg/ml, 2 μM, 37° C.
Description: (§2) Liver S9 fraction stability determination of the test compounds in dog, cynomolgus monkey and human is performed using HPLC-MS. Test compound (2 μM, 0.1% DMSO, 1% Methanol final concentration) was assessed for stability in a 50 μl phosphate buffer containing 1.0 mg/ml S9 protein from each of the three species and 5 mM D-saccharic acid-1, 4-lactone. Samples were incubated at 37° C. for 60 minutes and the % compound remaining was assessed.

[4] = Liver S9 fraction stability, monkey; format: in vitro ADME, cynomolgus monkey; conditions: monkey liver S9 1.0 mg/ml, 2 μM, 37° C.
Description: as §2

[5] = Liver S9 fraction stability, human; format: in vitro ADME; conditions: human liver S9 1.0 mg/ml, 2 μM, 37° C.
Description: as §2

[6] = Solubility determination in oil (Table 10); conditions: thermodynamic from solid; for solubility thermodynamic: water, Equilibrium solubility: Water
Description: A known amount of test substance (˜40 mg) was weighed into the vial, 100 μL of oil was added and heated to 60° C. and then system was slurried to reach equilibrium. […] Extra oil was added into the vial once compound precipitated out and then the system was re-equilibrated at 1000 rpm at room temperature (25° C.). Final concentration was determined by HPLC method as described below in Table 6a and 6b.

[7] = Dog pharmacokinetic studies, deep intramuscular administration; format: in vivo, Beagle dogs; conditions: Beagle, dog, plasma, im, 48 mg/kg, IM 48 mg/kg, Sesame oil + 1% Benzyl Alcohol
In short: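 Beagle dogs (n=3) dosed by deep intramuscular injection into quadriceps or biceps femoris, formulation 400 mg base equivalents/mL in sesame oil + 1% benzyl alcohol, under propofol sedation. Plasma quantified by LC-MS/MS; non-compartmental analysis for Cmax, Tmax, T1/2, AUC and MRT.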

[8] = Dog body weights and clinical observation (Tables 66-86); format: in vivo, Beagle dogs; conditions: dog D1002, 48 mg/kg
Description: Weight monitoring was done every week.
The dose formulation (concentration—400 mg base equivalents/ml in sesame oil+1% benzyl alcohol, unless otherwise specified) was administered via deep intramuscularly (unless otherwise specified). The injection vehicle was also dosed via deep intramuscular route (unless otherwise specified) on contralateral site of each animal at study initiation. The animals were sedated with Propofol at 6 mg/kg via IV administration. Following sedation hair was carefully removed from around the injection site and the area gently cleaned. Care will be taken to avoid irritating skin during shaving and cleaning the injection site. Then dogs will be dosed with deep IM administration. At least 2.5 cm depth from the surface into the central aspect of the quadriceps or biceps femoris muscle, by angling the needle toward the femur. If the needle hits the femur, simply draws back slightly and then inject. The dose volume will be determined by the animals' body weight collected on the morning of dosing day. For repeated administration, the injection sites may be rotated to minimize tissue injury.

[9] = Polymorph screening of solid state drug substances (Table 23); format: physicochemical; conditions: stirred 50 °C 72 hours; for Dry method and appearance: dried solid
[10] = Plasma stability, monkey plasma (HPLC-MS); format: in vitro ADME, Cynomolgus Monkey; conditions: 2 μM, 37° C.
Description: as §1

## Oc1ccc2c3c1O[C@H]1[C@H](O)CC[C@@]4(O)[C@@H](C2)N(CC2CC2)CC[C@]314 [6-β-naltrexol]
[1]
  mean elimination half-life: thirteen

## CCCCCCCCCCCC(=O)OCN1C(=O)CCc2ccc(OCCCCN3CCN(c4cccc(Cl)c4Cl)CC3)cc21 [Aripiprazole lauroxil, reference compound]
[2]
  % remaining at time point in minutes, 120 min: 80%
[3]
  % remaining at 60 minutes, Dog: 66.1%
[4]
  % remaining at 60 minutes, Monkey: 56.6%
[5]
  % remaining at 60 minutes, Human: 47.8%

## C=C1CC[C@@]2(O)C3Cc4ccc(OCOC(=O)OCCCCCCCCCCC)c5c4[C@@]2(CCN3CC2CC2)[C@H]1O5 [Compound 5, (((4aS,7aS,12bS)-3-(cyclopropylmethyl)-4a-hydroxy-7-methylene-2,3,4,4a,5,6,7,7a-octahydro-1H-4,12-methanobenzofuro[3,2-e]isoquinolin-9-yl)oxy)methyl undecyl carbonate]
[6]; 25 °C, oil or lipid, Solubility by volumetric flask method: Cottonseed oil, volumetric flask method, Heating Temp. 60 °C, Obs. Temp. 25 °C
  solubility: > 402 mg/mL
[6]; 25 °C, oil or lipid, Solubility by volumetric flask method: Sesame oil, volumetric flask method, Heating Temp. 60 °C, Obs. Temp. 25 °C
  solubility: > 401 mg/mL
[6]; 40 °C, section 'Solubility by volumetric flask method', Heating Temp. 40 °C, Obs. Temp. 40 °C
  solubility thermodynamic: < 0.001 mg/mL
[7]; read-out: AUC0-inf (ng · h/mL) prodrug
  AUC(0-inf): 3870 ng·h/mL
[7]; read-out: Half-life t1/2 (hour) prodrug (converted)
  half-life: 70.9 h
[8]; 456 hr
  BT: 3 cm * 3 cm/BT: 38.9 °C
[8]; 504 hr
  BT: 3 cm * 3 cm/BT: 38.7 °C
[8]; […]
  BT: 3 cm * 4 cm/BT: 39.4 °C

## C=C1CC[C@@]2(O)C3Cc4ccc(OC(=O)NC(C)(C)C)c5c4[C@@]2(CCN3CC2CC2)[C@H]1O5 [Compound 40, (4aS,7aS,12bS)-3-(cyclopropylmethyl)-4a-hydroxy-7-methylene-2,3,4,4a,5,6,7,7a-octahydro-1H-4,12-methanobenzofuro[3,2-e]isoquinolin-9-yl tert-butylcarbamate]
[9]; Acetone
  XRPD results (Dried): Amorphous
  Dry method and appearance: Evaporation/white powder
[9]; EtOAc
  XRPD results (Dried): Pattern A
  Dry method and appearance: Evaporation/white powder
[9]; Heptane
  XRPD results (Dried): Pattern A
  Dry method and appearance: Centrifugation/white powder
[9]; Isopropanol
  XRPD results (Dried): Amorphous
  Dry method and appearance: Evaporation/oil
[9]; MTBE
  XRPD results (Dried): Amorphous
  Dry method and appearance: Evaporation/white powder
other
  melting point: 107.6 °C

## C=C1CC[C@@]2(O)C3Cc4ccc(OC(=O)CCCCCCCCCCCCCCC)c5c4[C@@]2(CCN3CC2CC2)[C@H]1O5 [Compound 56, (4aS,7aS,12bS)-3-(cyclopropylmethyl)-4a-hydroxy-7-methylene-2,3,4,4a,5,6,7,7a-octahydro-1H-4,12-methanobenzofuro[3,2-e]isoquinolin-9-yl palmitate]
[6]; 25 °C, oil or lipid, Approximate Solubility in Excipient: Cottonseed oil, Heating Temp. 60 °C, Obs. Temp. 25 °C
  solubility at 24 h: < 50 mg/mL
[6]; 25 °C, oil or lipid, Approximate Solubility in Excipient: Sesame oil, Heating Temp. 60 °C, Obs. Temp. 25 °C
  solubility at 24 h: < 50 mg/mL
[6]; 40 °C, oil or lipid, Approximate Solubility in Excipient: Cottonseed oil, Heating Temp. 60 °C, Obs. Temp. 40 °C
  solubility: 25 to 50 mg/mL (≈ 43.3 to 86.5 mM)
[6]; 40 °C, oil or lipid, Approximate Solubility in Excipient: Sesame oil, Heating Temp. 60 °C, Obs. Temp. 40 °C
  solubility: 25 to 50 mg/mL (≈ 43.3 to 86.5 mM)
[6]; 40 °C, organic solvent or mixture, Approximate Solubility in Excipient: Ethanol, Heating Temp. 60 °C, Obs. Temp. 40 °C
  solubility: < 40.4 mg/mL
[6]; 40 °C, Heating Temp. 60 °C, Obs. Temp. 40 °C
  solubility thermodynamic: 0.0679 mg/mL (≈ 0.118 mM)
other
  melting point: 48.95 °C

## CCCCCCCCCCCCCCCC(=O)OC1CCCn2c1nc(C)c(CCN1CCC(c3noc4cc(F)ccc34)CC1)c2=O (centres unmarked) [Paliperidone palmitate, reference compound]
[10]
  % remaining at time point in minutes, 15 min: 92%
[3]
  % remaining at 60 minutes, Dog: 56.4%
[4]
  % remaining at 60 minutes, Monkey: 57.4%
[5]
  % remaining at 60 minutes, Human: 47.8%
